Laboratory results from the supplement of paper PMC10307832.

What was measured:
Test in all cases: relative viability (nuclei count vs DMSO), 5 days (fraction); higher = more cells survive
[1] = compound: Cc1ccc(-n2nc(C(C)(C)C)cc2NC(=O)Nc2ccc(OCCN3CCOCC3)c3ccccc23)cc1 [Doramapimod] + O=C(c1cc(Cc2n[nH]c(=O)c3ccccc23)ccc1F)N1CCN(C(=O)C2CC2)CC1 [Olaparib] (partner 8 µM)
Method in brief: (§1)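 Each reported value is a median over duplicate plates. It expresses relative viability: treated-well nuclei count divided by vehicle-well nuclei count. Lung cancer cell lines in 1536-well plates were dosed by pin tool a day after seeding, alone with one drug or with a fixed anchor-drug dose plus five library-drug doses (not always all listed) in √10 steps, and nuclei were counted after 5 days.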

[2] = compound: Cc1ccc(-n2nc(C(C)(C)C)cc2NC(=O)Nc2ccc(OCCN3CCOCC3)c3ccccc23)cc1 [Doramapimod] + CS(=O)(=O)CCNCc1ccc(-c2ccc3ncnc(Nc4ccc(OCc5cccc(F)c5)c(Cl)c4)c3c2)o1 [Lapatinib] (partner 2 µM)
Method in brief: as §1

[3] = compound: C1=CC=C2C(=C1)C=CC(=C2SSC3=C(C=CC4=CC=CC=C43)O)O [IPA-3] + CS(=O)(=O)N1CCN(Cc2cc3nc(-c4cccc5[nH]ncc45)nc(N4CCOCC4)c3s2)CC1 [Pictilisib] (partner 1 µM)
Method in brief: as §1

[4] = compound: C1=CC=C2C(=C1)C=CC(=C2SSC3=C(C=CC4=CC=CC=C43)O)O [IPA-3] + CC(=O)c1c(C)c2cnc(Nc3ccc(N4CCNCC4)cn3)nc2n(C2CCCC2)c1=O [Palbociclib] (partner 0.5 µM)
Method in brief: as §1

Row | Cell Line | relative viability ([1]; first compound 0.02 µM) | relative viability ([1]; first compound 0.06325 µM) | relative viability ([1]; first compound 0.2 µM) | relative viability ([1]; first compound 0.6325 µM) | relative viability ([1]; first compound 2 µM) | relative viability ([2]; first compound 0.02 µM) | relative viability ([2]; first compound 0.06325 µM) | relative viability ([2]; first compound 0.2 µM) | relative viability ([2]; first compound 0.6325 µM) | relative viability ([2]; first compound 2 µM) | relative viability ([3]; first compound 0.2 µM) | relative viability ([3]; first compound 0.6325 µM) | relative viability ([3]; first compound 2 µM) | relative viability ([3]; first compound 6.325 µM) | relative viability ([3]; first compound 20 µM) | relative viability ([4]; first compound 0.2 µM) | relative viability ([4]; first compound 0.6325 µM) | relative viability ([4]; first compound 2 µM) | relative viability ([4]; first compound 6.325 µM) | relative viability ([4]; first compound 20 µM)
1 | NCI-H3122 | 0.694 | 0.62 | 0.721 | 0.599 | 0.599 | 1.02 | 0.962 | 0.974 | 1.08 | 0.932 | 0.612 | 0.566 | 0.559 | 0.697 | 0.594 | 0.185 | 0.174 | 0.176 | 0.219 | 0.203
2 | SK-MES-1 | 0.707 | 0.694 | 0.638 | 0.683 | 0.607 | 0.455 | 0.453 | 0.389 | 0.451 | 0.376 | 0.415 | 0.357 | 0.321 | 0.34 | 0.403 | 0.326 | 0.308 | 0.332 | 0.277 | 0.238
3 | HOP-62 | 0.315 | 0.369 | 0.424 | 0.495 | 0.467 | 0.918 | 1.12 | 0.991 | 0.95 | 0.927 | 1.04 | 0.651 | 0.589 | 0.668 | 0.63 | 0.435 | 0.365 | 0.414 | 0.451 | 0.513
4 | HCC-366 | 0.331 | 0.333 | 0.318 | 0.368 | 0.303 | 1.08 | 1.08 | 1.14 | 1.03 | 1.03 | 0.161 | 0.152 | 0.0986 | 0.184 | 0.136 | 0.479 | 0.382 | 0.374 | 0.378 | 0.474
